*: point of attachment. Cbz = O=C(OCc1ccccc1)*; CH2F = FC*
What was measured:
[1] = tested on: procaspase-6 cleavage in primary hepatocytes; assay: Procaspase-6 cleavage induced by TNFα and CHX in primary hepatocytes (IB); assay type: cell-based, mice; conditions: 10 μM pretreatment 1 hr, then 30 μg/ml CHX and 50 ng/ml TNFα 2 hrs
From the text: FIGS. 5A-5K. AMPK phosphorylates caspase-6 to inhibit its cleavage and activation. FIG. 5A. […] IB analysis of cell lysates. n=3. Mean±SD. *, P<0.05, two-way ANOVA. FIG. 5B. […] Cell lysates were subject to caspase-6 activity assay. Mean±SD. *, P<0.05. FIG. 5C. Caspase-6 Ser^257 locates within AMPK substrate motif. FIG. 5C. discloses SEQ ID NOS 57-63, respectively, in order of appearance. FIG. 5D. In vitro kinase assay using recombinant caspase-6, and recombinant AMPKα1β1γ1 or AMPKα2β1γ1 active kinase. FIG. 5E. Alignment of caspase-6 sequence. FIG. 5E. discloses SEQ ID NOS 64-67, respectively, in order of appearance. FIG. 5F. HEK293T cells overexpressing caspase-6-myc WT, S^257A, S^257D or S^257E mutant were treated with 10 μg/ml CHX and 25 ng/ml TNFα for 2 hrs. IB analysis of cell lysates. FIGS. 5G-5J. C57BL/6J mice were fed CD-HFD for 6 weeks, followed by intraperitoneally injection of 25 mg/kg A-769662 or vehicle daily for 2 weeks while continuous CD-HI-D. Mice were sacrificed 6 hrs after last injection. FIG. 5G. IB analysis of liver lysates. n=5. FIG. 5H. Liver lysates were subject to caspase-6 activity assay. n=7. FIG. 5I. Liver sections stained as indicated therein (aCasp6 and DAPI); in the merged image sections, the different stains correspond to the grayscale shades as indicated in the single stained images to the left. Scale bar=50 μm. […] Quantification of aCasp6 staining per field in FIG. 5I. n=7. […]

[2] = tested on: CD-HFD-fed Flox and LAKO mice; assay: Caspase-6 inhibitor Z-VEID-FMK in CD-HFD-fed Flox and LAKO mice; assay type: in vivo
From the text: FIG. 4A. […] Scale bar=50 μm. FIG. 4B. […] FIG. 4F. […] Scale bar=100 μm. FIG. 4G. […] Scale bar=50 μm.
FIG. 6A. […] FIG. 6B. […] FIG. 6C. […] FIG. 6D. […] FIG. 6E. […] FIG. 6F.
FIGS. 14A-14G. […] FIG. 14A. […] Scale bar=100 μm.

[3] = tested on: cleaved caspase-3 and -7 in primary hepatocytes; assay: Caspase cascade after CHX plus TNFα and medium change in primary hepatocytes (IB); assay type: cell-based, mice; conditions: 25 μM pretreatment 1 hr, CHX and TNFα 2 hrs, medium changed for 4 hrs
Procedure: FIGS. 16A-16D. Caspase-6 sustain activation of caspase cascade to induce apoptosis. FIG. 16A. HepG2 cells transfected with scrambled RNA or caspase-6 siRNA were treated with vehicle or 300 μg/ml CHX and 50 ng/ml TNFα for 20 hrs. Viability was measured by CCK-8 assay. Data are shown as mean±SD. *, P<0.05, two-way ANOVA. FIG. 16B. HepG2 cells transfected with scrambled RNA or Caspase-6 siRNA were treated with vehicle or 30 μg/ml CHX and 50 ng/ml TNFα for 2 hrs. Medium was changed to remove treatment. Cells were harvested at indicated time points. Cell lysates were subject to IB analysis. FIG. 16C. Isolated primary hepatocytes were pretreated with 25 μM Z-VEID-FMK (VEID) (SEQ ID NO: 71) for 1 hr and treated with 30 μg/ml CHX and 50 ng/ml TNFα for 2 hrs. Medium was changed to remove treatment for 4 hrs. Cell lysates were subject to IB analysis. FIG. 16D. Proposed model for roles of AMPK/caspase-6 axis in the regulation of NASH-associated liver damage. […]
Western blot was performed as previously described(11). […] Supernatants were collected and analyzed with BCA (Thermo Scientific) to quantify protein content. […] Individual proteins were detected with specific antibodies and visualized on film using horseradish peroxidase-conjugated secondary antibodies (Fisher Scientific) and SuperSignal West Pico PLUS Chemilunminescent Substrate (Thermo Scientific).

[4] = both Flox and LAKO mice, 5 mg/kg i.p. every other day for two weeks

Row | procaspase-6 cleavage caused by TNFα and CHX [1] | cleaved caspase-3 and -7 [3] | Molecule | difference in liver damage between Flox and LAKO mice ([2]; 5 mg/kg i.p. every other day for two weeks) | cytosolic cytochrome c (liver fractions, IB) ([2]; both Flox and LAKO mice, 5 mg/kg i.p. every other day for 2 weeks) | liver fibrosis (Sirius red fibrosis area, liver hydroxyproline) [2, 4] | number of apoptotic hepatocytes (TUNEL) [2, 4] | serum ALT activity [2, 4]
1 | largely attenuated |  | COC[C@@H]1CCCN1S(=O)(=O)c1ccc2c(c1)C(=O)C(=O)N2 [caspase-3 and -7 inhibitor] |  |  |  |  | 
2 |  | significant decrease | Z-VEID-FMK (Cbz-VEID-CH2F) | abrogated | decreased | reduced | significantly reduced | decreased
